Assay results: patent US4888049A, “Synergist for biocide” (Kao Corporation, priority 1986, dated 1989)

Tested on: Crabgrasses
Experiment: Herbicidal effect of Karmex D (DCMU) herbicide with or without compound 6 (Example 6)
Assay type: in vivo, crabgrass
Conditions: compound 6, where added, 2000 ppm in the diluted solution
Method: Crabgrasses (30 crabgrasses per pot) which were in a trifoliate stage were treated with the above herbicide in a predetermined concentration. 7 days after the treatment, the weight of survival at the aerical part and the percentage herbicidal effect relative to the untreated section (%) were calculated. 50% herbicidal concentration was also determined.
The above-mentioned preparation was diluted with water to have a predetermined concentration.

In the case of CCCCCCCCC(CCCCCC)C[N+](C)(C)Cc1ccc(Cl)cc1 (centres unmarked) [compound 6], the “herbicidal effect (%)” value (active ingredient (DCMU) concn. 125 ppm) is reported as 39%, the “herbicidal effect (%)” value (active ingredient (DCMU) concn. 250 ppm) is reported as 55% and the “herbicidal effect (%)” value (active ingredient (DCMU) concn. 500 ppm) is reported as 77%. For the same compound, the “herbicidal effect (%)” value (active ingredient (DCMU) concn. 1000 ppm) was 91% and the “herbicidal effect (%)” value (active ingredient (DCMU) concn. 2000 ppm) was 100%.
